Counter-ions that a name gives are not always drawn.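 48-hour exposure; five concentrations; linearly interpolated endpoints. GI50 = concentration required for 50% inhibition of growth.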 Calls of active or inactive are those of the source. Cut-off read from the data, not from the text of the source: active = GI50 up to about 1.1 µM and inactive = higher.
Assays:
Test in all cases: DTP human tumour cell line panel, 48 h
[1] = system: COLO 205
[2] = system: IGROV-1
[3] = system: PC-3
[4] = system: NCI/ADR-RES
[5] = system: OVCAR-3
[6] = system: MDA-N
[7] = system: KM12
[8] = system: CCRF-CEM
[9] = system: OVCAR-4
[10] = system: OVCAR-8
[11] = system: U-251
[12] = system: ACHN
[13] = system: UACC-62
[14] = system: SF-268
[15] = system: Hs-578T
[16] = system: SK-OV-3
[17] = system: SR
[18] = system: NCI-H522
[19] = system: MCF7
[20] = system: Malme-3M
[21] = system: T47D
[22] = system: NCI-H460
[23] = system: SW-620
[24] = system: K562
[25] = system: HCT-116
[26] = system: 786-0
[27] = system: SK-MEL-5
[28] = system: CAKI-1
[29] = system: MDA-MB-435
[30] = system: LOX IMVI
[31] = system: UO-31
[32] = system: SNB-19
[33] = system: TK-10
[34] = system: SK-MEL-28
[35] = system: HOP-62
[36] = system: A498
[37] = system: EKVX
[38] = system: OVCAR-5
[39] = system: RPMI-8226
[40] = system: DU-145
[41] = system: HT-29
[42] = system: SN12C
[43] = system: HL-60
[44] = system: SF-295
[45] = system: M14
[46] = system: UACC-257
[47] = system: MOLT-4
[48] = system: NCI-H23
[49] = system: HOP-92
[50] = system: SNB-75
[51] = system: HCT-15
[52] = system: MDA-MB-231
[53] = system: A549
[54] = system: NCI-H226
[55] = system: SF-539
[56] = system: BT-549
[57] = system: RXF 393
[58] = system: SK-MEL-2

CCCCNC(=S)N/N=C/c1cccc(C)n1
GI50 [1]: 33.7 µM (inactive) | GI50 [2]: 58.3 µM (inactive) | GI50 [3]: 47 µM (inactive) | GI50 [4]: 29 µM (inactive) | GI50 [5]: > 100 µM (inactive) | GI50 [6]: 42.8 µM (inactive) | GI50 [7]: 31.3 µM (inactive) | GI50 [8]: 6.9 µM (inactive) | GI50 [9]: 55.1 µM (inactive) | GI50 [10]: 33.5 µM (inactive) | GI50 [11]: 44.2 µM (inactive) | GI50 [12]: 23 µM (inactive) | GI50 [13]: 25.6 µM (inactive) | GI50 [14]: 34 µM (inactive) | GI50 [15]: > 100 µM (inactive) | GI50 [16]: 59.8 µM (inactive) | GI50 [17]: 19.5 µM (inactive) | GI50 [18]: 18.6 µM (inactive) | GI50 [19]: 37.8 µM (inactive) | GI50 [20]: 52.2 µM (inactive) | GI50 [21]: 26 µM (inactive) | GI50 [22]: 32.4 µM (inactive) | GI50 [23]: 49.1 µM (inactive) | GI50 [24]: 13.2 µM (inactive) | GI50 [25]: 20.7 µM (inactive) | GI50 [26]: 35.2 µM (inactive) | GI50 [27]: 43 µM (inactive) | GI50 [28]: 33.9 µM (inactive) | GI50 [29]: 42.2 µM (inactive) | GI50 [30]: 34.9 µM (inactive) | GI50 [31]: 29 µM (inactive) | GI50 [32]: 39.3 µM (inactive) | GI50 [33]: 29.7 µM (inactive) | GI50 [34]: 48.5 µM (inactive) | GI50 [35]: 23.9 µM (inactive) | GI50 [36]: 36.1 µM (inactive) | GI50 [37]: 24.8 µM (inactive) | GI50 [38]: 43.2 µM (inactive) | GI50 [39]: 25.5 µM (inactive) | GI50 [40]: 83.2 µM (inactive) | GI50 [41]: > 10 µM (inactive) | GI50 [42]: 30.1 µM (inactive) | GI50 [43]: 23.2 µM (inactive) | GI50 [44]: 33.2 µM (inactive) | GI50 [45]: 25.1 µM (inactive) | GI50 [46]: 37.8 µM (inactive) | GI50 [47]: 10.7 µM (inactive) | GI50 [48]: 59.3 µM (inactive) | GI50 [49]: 24.2 µM (inactive) | GI50 [50]: 67.6 µM (inactive) | GI50 [51]: 47.6 µM | GI50 [52]: 35.7 µM (inactive) | GI50 [53]: 32.4 µM (inactive) | GI50 [54]: 27.8 µM (inactive) | GI50 [55]: 29.7 µM (inactive) | GI50 [56]: 49.4 µM (inactive)

CN1[C@@H]2CC[C@H]1C[C@@H](OC(c1ccccc1)c1ccccc1)C2 [BENZTROPINE MESYLATE]
GI50 [1]: 11.3 µM (inactive) | GI50 [2]: 17 µM (inactive) | GI50 [3]: 16.6 µM (inactive) | GI50 [4]: 16.2 µM (inactive) | GI50 [57]: 15.5 µM (inactive) | GI50 [5]: 15.9 µM (inactive) | GI50 [6]: 15.1 µM (inactive) | GI50 [7]: 17.2 µM (inactive) | GI50 [8]: 14 µM (inactive) | GI50 [9]: 25.5 µM (inactive) | GI50 [10]: 16.4 µM (inactive) | GI50 [11]: 15.5 µM (inactive) | GI50 [58]: 17.1 µM (inactive) | GI50 [12]: 19.7 µM (inactive) | GI50 [13]: 16.8 µM (inactive) | GI50 [14]: 18.5 µM (inactive) | GI50 [15]: 13.1 µM (inactive) | GI50 [16]: 17.9 µM (inactive) | GI50 [17]: 19.5 µM (inactive) | GI50 [18]: 14.9 µM (inactive) | GI50 [19]: 13.9 µM (inactive) | GI50 [20]: 14.9 µM (inactive) | GI50 [21]: 17.3 µM (inactive) | GI50 [23]: 14.5 µM (inactive) | GI50 [24]: 13.1 µM (inactive) | GI50 [25]: 12.6 µM (inactive) | GI50 [26]: 14 µM (inactive) | GI50 [27]: 15.6 µM (inactive) | GI50 [28]: 23.6 µM (inactive) | GI50 [29]: 13.9 µM (inactive) | GI50 [30]: 16 µM (inactive) | GI50 [31]: 15.3 µM (inactive) | GI50 [32]: 22 µM (inactive) | GI50 [33]: 17.3 µM (inactive) | GI50 [34]: 14.7 µM (inactive) | GI50 [35]: 15.6 µM (inactive) | GI50 [36]: 14 µM (inactive) | GI50 [37]: 31.6 µM (inactive) | GI50 [38]: 18.4 µM (inactive) | GI50 [39]: 14.7 µM (inactive) | GI50 [40]: 26.9 µM (inactive) | GI50 [41]: 11 µM (inactive) | GI50 [42]: 27.9 µM (inactive) | GI50 [43]: 18.2 µM (inactive) | GI50 [44]: 11.4 µM (inactive) | GI50 [45]: 14.7 µM (inactive) | GI50 [46]: 13.7 µM (inactive) | GI50 [47]: 21 µM (inactive) | GI50 [48]: 27.3 µM (inactive) | GI50 [49]: 12.4 µM (inactive) | GI50 [50]: 17.3 µM (inactive) | GI50 [51]: 22.5 µM | GI50 [52]: 17.5 µM (inactive) | GI50 [53]: 16.9 µM (inactive) | GI50 [54]: 27.5 µM (inactive) | GI50 [56]: 19.1 µM (inactive)
